Results published in patent US7625909B2, “Substituted quinazolinone compounds” (Novartis Vaccines and Diagnostics, Inc., priority 2003, dated 2009).
Read-outs that look alike come from different tables or passages of the source.

Test: Tissue half-life (t1/2) and Cmax in plasma, brain, kidney and liver after oral administration to CD-1 mice
Type: in vivo
Settings: 30 mg/kg oral gavage; for half-life: male, mouse
Method: In vivo studies were conducted to observe the effect of the compounds of formula IA, IB, IIA, and IIIB in the subject animal. Male CD-1 mice, body weight of 20 grams at arrival, were used in these studies. Mice were given 30 mg/kg of compound in HPMC/Tween solution or suspension via oral gavage. Plasma, brain, and liver samples were collected at time periods of 1, 2, 4, 8, and 24 hours post dosing. One mouse was used per time point. Thus, a total of 5 mice were used for each compound tested. For sample collection, mice were euthanized with CO2. Blood samples were taken by cardiac puncture and kept on ice. Brain and liver samples were collected immediately after bleeding and the samples were kept on dry ice. For calculation of tissue half-lives (t1/2s), the terminal rate constant k was estimated by the absolute value of the slope of a log-linear regression of the terminal phase of the tissue concentration-time profile. The tissue half-life t1/2 is In(2)/k.
The following table includes t1/2 data for plasma, brain, kidney, and liver obtained after oral administration.

[1] = brain, read-out: Tissue Half-Lives, Brain (converted)
[2] = liver, read-out: Tissue Half-Lives, Liver (converted)
[3] = plasma, read-out: Tissue Half-Lives, Plasma (converted)

half-life [1] [h] | half-life [2] [h] | half-life [3] [h] | Tissue Half-Lives, Kidney [h] | Structure (SMILES) | further results
 |  |  |  | COc1ccc(CCn2c(NC3CC3)nc3cc(NC(=N[C@H]4C[C@H]5C[C@@H]([C@@H]4C)C5(C)C)N4CC(=O)N[C@@H](C)C4)ccc3c2=O)c(F)c1 [Example 224, (3S)-N-{2-(cyclopropylamino)-3-[2-(2-fluoro-4-methoxyphenyl)ethyl]-4-oxo-3,4-dihydroquinazolin-7-yl}-3-methyl-5-oxo-N′-[(1S, 2S, 3S, 5R)-2,6,6-trimethylbicyclo[3.1.1]hept-3-yl]piperazine-1-carboximidamide] | Tissue Half-Lives, Liver (liver): 3.1 h
51 | 17 | 21 |  | C[C@@H]1[C@@H](N=C(Nc2ccc3c(=O)n(CCc4ccc(Cl)cc4)c(C4CCCNC4)nc3c2)N2CC(=O)N[C@@H](C)C2)C[C@H]2C[C@@H]1C2(C)C (stereo partly drawn) [Example 241, (3S)-N-{3-[2-(4-chlorophenyl)ethyl]-4-oxo-2-piperidin-3-yl-3,4-dihydroquinazolin-7-yl}-3-methyl-5-oxo-N′-[(1S, 2S, 3S, 5R)-2,6,6-trimethylbicyclo[3.1.1]hept-3-yl]piperazine-1-carboximidamide] | 
 |  |  |  | COc1ccc(CCn2c(-c3cccnc3)nc3cc(N/C(=N/C4C[C@H]5C[C@@H]([C@@H]4C)C5(C)C)N4CCN(C#N)[C@@H](C)C4)ccc3c2=O)c(F)c1 (stereo partly drawn) [Example 246, (3S)-4-cyano-N-{3-[2-(2-fluoro-4-methoxyphenyl)ethyl]-4-oxo-2-pyridin-3-yl-3,4-dihydroquinazolin-7-yl}-3-methyl-N-[(1S, 2S, 3S, 5R)-2,6,6-trimethylbicyclo[3.1.1]hept-3-yl]piperazine-1-carboximidamide] | Tissue Half-Lives, Brain (brain): 5.8 h
15 | 4.3 | 5.4 |  | COc1ccc(CCn2c(C#N)nc3cc(NC(=NC4C[C@H]5C[C@@H]([C@@H]4C)C5(C)C)N4CCN[C@@H](CF)C4)ccc3c2=O)c(F)c1 (stereo partly drawn) [Example 256, (3R)-N-{2-cyano-3-[2-(2-fluoro-4-methoxyphenyl)ethyl]-4-oxo-3,4-dihydroquinazolin-7-yl}-3-(fluoromethyl)-N′-[(1S, 2S, 5R)-2,6,6-trimethylbicyclo[3.1.1]hept-3-yl]piperazine-1-carboximidamide] | 
 |  |  | 7.3 | C[C@@H]1[C@@H](/N=C(/Nc2ccc3c(=O)n(CCc4ccc(Cl)cc4Cl)cnc3c2)N2CCNC(=O)C2)C[C@@H]2C[C@H]1C2(C)C [Example 260, N-{3-[2-(2,4-dichlorophenyl)ethyl]-4-oxo-3,4-dihydroquinazolin-7-yl}-3-oxo-N′-[(1R, 2S, 3S, 5S)-2,6,6-trimethylbicyclo[3.1.1]hept-3-yl]piperazine-1-carboximidamide] | 
 |  |  | 3.3 | COc1ccc(CCn2c(-c3cccnc3)nc3cc(N/C(=N/[C@H]4C[C@@H]5C[C@H]([C@@H]4C)C5(C)C)N4C[C@@H](C)N(O)[C@@H](C)C4)ccc3c2=O)c(F)c1 [Example 296, (3R, 5S)-N-[3-{2-[2-fluoro-4-(methyloxy)phenyl]eth-yl}-4-oxo-2-(3-pyridinyl)-3,4-dihydro-7-quinazolinyl]-4-hydroxy-3,5-dimethyl-N′-[(1R, 2S, 3S, 5S)-2,6,6-trimethylbicyclo[3.1.1]hept-3-yl]-1-piperazinecarboximida-mide] | 
